Here are results for two compounds from US20020170078A1, “Calcineurin-related transgenic mammals, compositions and methods” (priority 2001, published 2002).

The subject of the assay is Schaffer collateral pathway to area CA1 of hippocampal slices. The experiment in a line: 1-train (100 Hz) LTP, field potential recordings in hippocampal slices. It is filed as cell-based, mouse.

In the case of `NC(CCCP(=O)(O)O)C(=O)O` (racemic) [DL-AP5], for the setting “100 uM, at least 20 min pretreatment, mutant slices”, the “effect on the enhanced LTP” value was “abolished”.

In the case of `CCCCCCOC(=O)[C@]1(O)C[C@@H]2O[C@@]1(C)n1c3ccccc3c3c4c(c5c6ccccc6n2c5c31)C(=O)NC4` [KT5720], the “1-train LTP, % baseline 30 min after tetanus” value was 134±6 % baseline. In addition, for the setting “control slices, 30 min pretreatment”, the “effect on 1-train LTP” value is “no effect”. Further, the “effect on the increased potentiation (enhanced 1-train LTP)” value (mutant slices) was “suppressed”.
